This test addresses human TYK2 (JH2domain-pseudokinase) (Homo sapiens (Human), UniProt P29597). Briefly: TYK2 JH2 Domain Binding Assay (KINOMEscan). The procedure:
Binding constants for compounds of the present invention against the JH2 domain were determined by the following protocol for a KINOMEscan® assay (DiscoveRx). A fusion protein of a partial length construct of human TYK2 (JH2domain-pseudokinase) (amino acids G556 to D888 based on reference sequence NP_003322.3) and the DNA binding domain of NFkB was expressed in transiently transfected HEK293 cells. From these HEK 293 cells, extracts were prepared in M-PER extraction buffer (Pierce) in the presence of Protease Inhibitor Cocktail Complete (Roche) and Phosphatase Inhibitor Cocktail Set II (Merck) per manufacturers' instructions. The TYK2 (JH2domain-pseudokinase) fusion protein was labeled with a chimeric double-stranded DNA tag containing the NFkB binding site (5′-[…]-3′) fused to an amplicon for qPCR readout, which was added directly to the expression extract (the final concentration of DNA-tag in the binding reaction is 0.1 nM).
The liganded beads were blocked with excess biotin and washed with blocking buffer (SeaBlock (Pierce), 1% BSA, 0.05% Tween 20, 1 mM DTT) to remove unbound ligand and to reduce nonspecific binding.
Extracts were used directly in binding assays without any enzyme purification steps at a ≥10,000-fold overall stock dilution (final DNA-tagged enzyme concentration <0.1 nM). Extracts were loaded with DNA-tag and diluted into the binding reaction in a two step process. First extracts were diluted 1:100 in 1× binding buffer (PBS/0.05% Tween 20/10 mM DTT/0.1% BSA/2 μg/ml sonicated salmon sperm DNA) containing 10 nM DNA-tag. This dilution was allowed to equilibrate at room temperature for 15 minutes and then subsequently diluted 1:100 in 1× binding buffer. […] Kds were determined using an 11-point 3-fold compound dilution series with three DMSO control points. […] The compounds were then diluted directly into the assays such that the final concentration of DMSO was 0.9%. All reactions performed in polypropylene 384-well plates. Each was a final volume of 0.02 mL. Assays were incubated with shaking for 1 hour at room temperature. Then the beads were pelleted and washed with wash buffer (1×PBS, 0.05% Tween 20) to remove displaced kinase and test compound. […] The qPCR protocol consisted of a 10 minute hot start at 95° C., followed by 35 cycles of 95° C. for 15 seconds, 60° C. for 1 minute.
Kds were determined using an 11-point 3-fold compound dilution series with three DMSO control points. […] The compounds were then diluted directly into the assays such that the final concentration of DMSO was 0.9%. The Kds were determined using a compound top concentration of 30,000 nM. Kd measurements were performed in duplicate.
Binding constants (Kds) were calculated with a standard dose-response curve using the Hill equation: […]
The Hill Slope was set to −1.

Some results are limits rather than exact numbers.

human TYK2 (JH2domain-pseudokinase), sequence (P29597 556-888): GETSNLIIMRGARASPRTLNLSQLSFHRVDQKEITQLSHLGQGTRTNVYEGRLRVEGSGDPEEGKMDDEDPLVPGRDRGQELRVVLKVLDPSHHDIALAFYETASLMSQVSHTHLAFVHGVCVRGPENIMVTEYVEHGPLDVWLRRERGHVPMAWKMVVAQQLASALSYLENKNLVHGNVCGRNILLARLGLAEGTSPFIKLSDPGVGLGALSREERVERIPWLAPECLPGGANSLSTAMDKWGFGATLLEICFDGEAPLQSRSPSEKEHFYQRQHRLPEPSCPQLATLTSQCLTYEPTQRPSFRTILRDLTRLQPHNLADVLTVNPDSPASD

For `CNc1cc(Nc2cccn([C@@H]3C[C@H]3F)c2=O)nc2c(C(=O)N[C@H]3CC[C@@H]3OC)cnn12` [I-1205], the Kd was below 0.2 nM. In turn, `CNc1cc(Nc2cccn(C3CC(F)(F)C3)c2=O)nc2c(C(=O)N[C@H]3COC[C@H]3O)cnn12` [I-1206] yielded a Kd of 1 to 10 nM. Molecule `CNc1cc(Nc2cccn(C3CC(F)(F)C3)c2=O)nc2c(C(=O)N[C@@H]3CCC[C@@](C)(O)C3)cnn12` [I-1208] had a Kd of 1 to 10 nM. The result for `CNc1cc(Nc2cccn(C3CC(F)(F)C3)c2=O)nc2c(C(=O)N[C@@H]3CC[C@@H](OC)C3)cnn12` [I-1210] reads 0.2 to 1 nM. Molecule `CNc1cc(Nc2cccn(C3CC(F)(F)C3)c2=O)nc2c(C(=O)N[C@@H]3CC[C@@H](O)C3)cnn12` [I-1211] returned a Kd below 0.2 nM. Molecule `CNc1cc(Nc2cccn(C3CC(F)(F)C3)c2=O)nc2c(C(=O)N[C@@H]3CC[C@H](O)C3)cnn12` [I-1212] gave an equilibrium dissociation constant (Kd) above 10 nM. Then `CNc1cc(Nc2cccn([C@H]3CCCN(CCF)C3)c2=O)nc2c(C(=O)N[C@H]3CC[C@@H]3OC)cnn12` [I-1215], with below 0.2 nM; and `CNc1cc(Nc2cccn([C@H]3CCCN(CCF)C3)c2=O)nc2c(C(=O)N[C@@H]3CC[C@H]3OC)cnn12` [I-1216], with 0.2 to 1 nM. `CNc1cc(Nc2cccn(-c3cccnc3)c2=O)nc2c(C(=O)N[C@H]3CCC[C@H](OC)C3)cnn12` [I-1217] returned a Kd below 0.2 nM.

Molecule `CNc1cc(Nc2cccn(-c3cccnc3)c2=O)nc2c(C(=O)N[C@@H]3CCC[C@@H](OC)C3)cnn12` [I-1218] came in with a Kd of 1 to 10 nM. Regarding `CNc1cc(Nc2cccn([C@@H]3CCC[C@H](C#N)C3)c2=O)nc2c(C(=O)N[C@@H]3C[C@@H]3F)cnn12` [I-1219], the Kd was below 0.2 nM. `CNc1cc(Nc2cccn([C@H]3CCC[C@@H](C#N)C3)c2=O)nc2c(C(=O)N[C@@H]3C[C@@H]3F)cnn12` [I-1220] displayed a Kd of 0.2 to 1 nM.

Turning to `CNc1cc(-c2cn(C3CCOCC3)c3ncccc23)nc2c(C(=O)N[C@@H]3CCC[C@@]3(C)O)cnn12` [I-1221], the Kd was in the range of 0.2 to 1 nM.

Molecule `CNc1cc(-c2cn(C3CCOCC3)c3ncccc23)nc2c(C(=O)N[C@H]3CCC[C@]3(C)O)cnn12` [I-1222] registered a Kd below 0.2 nM. The result for `CNc1cc(-c2cn([C@H]3CCC[C@@H]3OC)c3ncccc23)nc2c(C(=O)N[C@H]3CC[C@H]3O)cnn12` [I-1223, N-((1S,2R)-2-hydroxycyclobutyl)-5-(1-((1S,2S)-2-methoxycyclopentyl)-1H-pyrrolo[2,3-b]pyridin-3-yl)-7-(methylamino)pyrazolo[1,5-a]pyrimidine-3-carboxamide] reads 0.2 to 1 nM; that for `CNc1cc(-c2cn([C@H]3CCC[C@@H]3OC)c3ncccc23)nc2c(C(=O)N[C@@H]3CC[C@@H]3O)cnn12` [I-1224, N-((1R,2S)-2-hydroxycyclobutyl)-5-(1-((1S,2S)-2-methoxycyclopentyl)-1H-pyrrolo[2,3-b]pyridin-3-yl)-7-(methylamino)pyrazolo[1,5-a]pyrimidine-3-carboxamide], 1 to 10 nM; that for `CNc1cc(Nc2cccn(C3CCOCC3)c2=O)nc2c(C(=O)N[C@H]3CCC[C@H](O)C3)cnn12` [I-1225], below 0.2 nM. `CNc1cc(Nc2cccn(C3CCOCC3)c2=O)nc2c(C(=O)N[C@@H]3CCC[C@@H](O)C3)cnn12` [I-1226] displayed a Kd of 1 to 10 nM.

The molecule `CNc1cc(Nc2cccn([C@@H]3C[C@H]3OC)c2=O)nc2c(C(=O)NC3CC3)cnn12` [I-1227] returned a Kd below 0.2 nM. `CNc1cc(Nc2cccn([C@H]3C[C@@H]3OC)c2=O)nc2c(C(=O)NC3CC3)cnn12` [I-1228] came in with a Kd of 1 to 10 nM.

`CNc1cc(-c2cn(CCCO)c3ncc(F)cc23)nc2c(C(=O)N[C@@H]3CC[C@H]3OC)cnn12` [I-1229] gave a Kd below 0.2 nM. Then `CNc1cc(-c2cn(CCCO)c3ncc(F)cc23)nc2c(C(=O)N[C@H]3CC[C@@H]3OC)cnn12` [I-1230], with 0.2 to 1 nM; and `CCO[C@H]1CC[C@@H]1NC(=O)c1cnn2c(NC)cc(Nc3cccn(-c4ccccn4)c3=O)nc12` [I-1231], with below 0.2 nM; and `CCO[C@@H]1CC[C@H]1NC(=O)c1cnn2c(NC)cc(Nc3cccn(-c4ccccn4)c3=O)nc12` [I-1232], with 0.2 to 1 nM.

On to `CNc1cc(Nc2cccn([C@@H]3C[C@H]3OC)c2=O)nc2c(C(=O)N[C@H]3CC[C@@H]3OC)cnn12` [I-1233], for which the Kd fell in the range of 1 to 10 nM.

`CNc1cc(Nc2cccn([C@H]3C[C@@H]3OC)c2=O)nc2c(C(=O)N[C@H]3CC[C@@H]3OC)cnn12` [I-1234]: the Kd lay in the range of 0.2 to 1 nM. Then `CNc1cc(Nc2cccn(C(C)C)c2=O)nc2c(C(=O)N[C@@H]3CCC[C@@](C)(OC)C3)cnn12` [I-1235], with below 0.2 nM; and `CNc1cc(Nc2cccn([C@@H]3CCCOC3)c2=O)nc2c(C(=O)N[C@@H]3CCC[C@@](C)(OC)C3)cnn12` [I-1236], with below 0.2 nM; and `CNc1cc(Nc2cccn([C@H]3CCCOC3)c2=O)nc2c(C(=O)N[C@@H]3CCC[C@@](C)(OC)C3)cnn12` [I-1237], with above 10 nM. In turn, `CNc1cc(Nc2cccn3ccnc23)nc2c(C(=O)N[C@@H]3CCC[C@@]3(C)O)cnn12` [I-1238] displayed a Kd below 0.2 nM. `CNc1cc(Nc2cccn3ccnc23)nc2c(C(=O)N[C@H]3CCC[C@]3(C)O)cnn12` [I-1239] registered a Kd below 0.2 nM. Then `CNc1cc(Nc2cccn(C(C)C)c2=O)nc2c(C(=O)N[C@@H]3CCC[C@@]3(C)O)cnn12` [I-1240], with below 0.2 nM; and `CNc1cc(Nc2cccn(C(C)C)c2=O)nc2c(C(=O)N[C@H]3CCC[C@]3(C)O)cnn12` [I-1241], with below 0.2 nM. In the case of `CNc1cc(Nc2cccn(C(C)C)c2=O)nc2c(C(=O)N[C@H]3CCC[C@](C)(O)C3)cnn12` [I-1242], the Kd was below 0.2 nM.

With `CNc1cc(Nc2cccn(C(C)C)c2=O)nc2c(C(=O)N[C@@H]3CCC[C@@](C)(O)C3)cnn12` [I-1243], the Kd lay within 1 to 10 nM. `CNc1cc(Nc2cccn([C@@H]3CCC[C@H](C#N)C3)c2=O)nc2c(C(=O)NC3CC3)cnn12` [I-1244] gave a Kd below 0.2 nM. Regarding `CNc1cc(Nc2cccn([C@H]3CCC[C@@H](C#N)C3)c2=O)nc2c(C(=O)NC3CC3)cnn12` [I-1245], the dissociation constant (Kd) lay in the range of 0.2 to 1 nM.

The molecule `CNc1cc(-c2cn([C@@H]3CCC[C@H]3OC)c3ncccc23)nc2c(C(=O)N[C@H]3CC[C@H]3O)cnn12` [I-1246, N-((1S,2R)-2-hydroxycyclobutyl)-5-(1-((1R,2R)-2-methoxycyclopentyl)-1H-pyrrolo[2,3-b]pyridin-3-yl)-7-(methylamino)pyrazolo[1,5-a]pyrimidine-3-carboxamide] yielded a Kd of 0.2 to 1 nM.

As for `CNc1cc(-c2cn([C@@H]3CCC[C@H]3OC)c3ncccc23)nc2c(C(=O)N[C@@H]3CC[C@@H]3O)cnn12` [I-1247, N-((1R,2S)-2-hydroxycyclobutyl)-5-(1-((1R,2R)-2-methoxycyclopentyl)-1H-pyrrolo[2,3-b]pyridin-3-yl)-7-(methylamino)pyrazolo[1,5-a]pyrimidine-3-carboxamide], the Kd was below 0.2 nM. `CNc1cc(Nc2cccn([C@H]3CCCOC3)c2=O)nc2c(C(=O)N[C@@H]3C[C@H]3OC)cnn12` [I-1248] registered a Kd below 0.2 nM. Then `CNc1cc(Nc2cccn([C@H]3CCCOC3)c2=O)nc2c(C(=O)N[C@H]3C[C@@H]3OC)cnn12` [I-1249], with below 0.2 nM.

A word on the Kd: it is the constant that tells how readily two partners part at equilibrium. Read a high Kd as a looser complex.

Values taken from US10508120B2, “TYK2 inhibitors and uses thereof” (Nimbus Lakshmi, Inc., priority 2017, dated 2019).
